Laboratory results from patent US20180099931A1 (AbbVie S.à.r.l., priority 2016, published 2018).
Where two headings read alike, the source gives them in different places.

Biological target: T1, F508delCFTR (Homo sapiens, UniProt P13569, DEL508-508)
T1 construct: expressed in transfected cells; host or cells: CFBE41o- human lung-derived epithelial cells (CFBE4lo-F508delCFTR-HRP), doxycycline-inducible
Assay: Cell Surface Expression-Horse Radish Peroxidase (CSE-HRP) Assay;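 on Maximum % activity (with co-corrector): co-corrector and positive control are both the same reference corrector at 2 µM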;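 on Maximum % activity (without co-corrector): percent of the 2 µM on-plate positive control corrector response above DMSO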
Type: cell-based
Conditions: for Maximum % activity (with co-corrector) / Emax: maximum at any tested concentration, normalized to on-plate positive control; for Emax: read-out: Maximum % activity (without co-corrector)

[1] = test compound without co-corrector, read-out: EC50 (without co-corrector)
[2] = with co-corrector (2 μM of 3-[(2R,4R)-4-({[1-(2,2-difluoro-1,3-benzodioxol-5-yl)cyclopropyl]carbonyl}amino)-7-methoxy-3,4-dihydro-2H-chromen-2-yl]benzoic acid), read-out: EC50 (with co-corrector)
[3] = test compound without co-corrector
[4] = with co-corrector (2 μM of 3-[(2R,4R)-4-({[1-(2,2-difluoro-1,3-benzodioxol-5-yl)cyclopropyl]carbonyl}amino)-7-methoxy-3,4-dihydro-2H-chromen-2-yl]benzoic acid)
[5] = CSE-HRP, test compound without co-corrector, read-out: EC50 (without co-corrector)
[6] = CSE-HRP, with co-corrector (2 μM of 3-[(2R,4R)-4-({[1-(2,2-difluoro-1,3-benzodioxol-5-yl)cyclopropyl]carbonyl}amino)-7-methoxy-3,4-dihydro-2H-chromen-2-yl]benzoic acid), read-out: EC50 (with co-corrector)
[7] = CSE-HRP, with co-corrector (2 μM)

T1 sequence (P13569 with tags, fused parts or gaps DEL508-508): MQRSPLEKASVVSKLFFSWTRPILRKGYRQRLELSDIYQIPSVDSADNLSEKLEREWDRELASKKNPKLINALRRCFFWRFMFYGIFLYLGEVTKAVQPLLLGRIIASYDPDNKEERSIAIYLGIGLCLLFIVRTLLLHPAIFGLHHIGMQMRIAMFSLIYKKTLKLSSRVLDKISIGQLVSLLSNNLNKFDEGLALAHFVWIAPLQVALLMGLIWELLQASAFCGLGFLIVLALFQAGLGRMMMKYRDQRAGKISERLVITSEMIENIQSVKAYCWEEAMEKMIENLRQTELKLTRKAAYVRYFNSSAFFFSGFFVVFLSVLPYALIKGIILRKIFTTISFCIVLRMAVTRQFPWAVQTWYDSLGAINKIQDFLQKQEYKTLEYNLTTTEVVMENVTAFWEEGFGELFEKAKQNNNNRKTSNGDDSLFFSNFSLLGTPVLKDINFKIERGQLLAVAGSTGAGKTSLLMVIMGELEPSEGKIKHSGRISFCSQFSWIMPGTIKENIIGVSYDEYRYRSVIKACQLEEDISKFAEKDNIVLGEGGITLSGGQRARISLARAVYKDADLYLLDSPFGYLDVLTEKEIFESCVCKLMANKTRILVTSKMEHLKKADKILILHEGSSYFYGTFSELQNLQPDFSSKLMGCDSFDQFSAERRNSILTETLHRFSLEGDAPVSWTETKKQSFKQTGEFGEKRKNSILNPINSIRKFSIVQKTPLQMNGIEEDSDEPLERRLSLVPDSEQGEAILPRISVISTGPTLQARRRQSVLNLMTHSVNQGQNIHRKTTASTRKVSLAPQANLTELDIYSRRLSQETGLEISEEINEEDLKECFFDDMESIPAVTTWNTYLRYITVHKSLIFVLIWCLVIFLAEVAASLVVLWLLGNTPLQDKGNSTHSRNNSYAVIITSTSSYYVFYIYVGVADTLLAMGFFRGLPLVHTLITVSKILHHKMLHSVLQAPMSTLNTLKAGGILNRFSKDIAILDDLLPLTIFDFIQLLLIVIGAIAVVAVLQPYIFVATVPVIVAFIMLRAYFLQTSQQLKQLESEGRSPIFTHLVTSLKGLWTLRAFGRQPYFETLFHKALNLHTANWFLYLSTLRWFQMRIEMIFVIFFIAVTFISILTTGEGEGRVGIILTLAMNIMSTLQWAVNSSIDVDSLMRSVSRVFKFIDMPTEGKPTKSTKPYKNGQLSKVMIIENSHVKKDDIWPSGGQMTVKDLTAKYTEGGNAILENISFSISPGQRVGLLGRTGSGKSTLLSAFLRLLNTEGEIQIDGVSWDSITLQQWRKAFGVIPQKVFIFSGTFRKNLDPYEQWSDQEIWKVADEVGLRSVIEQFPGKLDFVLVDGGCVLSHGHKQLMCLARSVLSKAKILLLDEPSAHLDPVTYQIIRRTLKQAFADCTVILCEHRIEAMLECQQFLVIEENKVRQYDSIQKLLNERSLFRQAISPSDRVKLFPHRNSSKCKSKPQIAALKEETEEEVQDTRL

| EC50 [1] [nM] | EC50 [2] [nM] | Maximum % activity (with co-corrector) (with co-corrector (2 μM)) | Emax (without co-corrector) [%] | Emax [3] [%] | Maximum % activity (with co-corrector) [4] | EC50 [5] [nM] | EC50 [6] [nM] | Maximum % activity (with co-corrector) [7] | Emax (CSE-HRP, without co-corrector) [%] | SMILES |
| --- | --- | --- | --- | --- | --- | --- | --- | --- | --- | --- |
| 1000 to 10000 | 1000 to 10000 | ++ (≥150 and <350) | – | < 100 | – | – | – | – | – | COc1ccc(C(C)(C)C)cc1CN[C@H]1[C@H](C(C)(C)C)[C@@](C)(C(=O)O)N(C(=O)[C@H](OC)c2ccccc2)[C@H]1c1ccccc1 [III-215] |
| 1000 to 10000 | 1000 to 10000 | – | – | 100 to 200 | +++ (≥350) | – | – | – | – | COc1ncc(C2=CCOC2)cc1CN[C@H]1[C@H](C(C)(C)C)[C@@H](C(=O)O)N(C(=O)C2CCCCC2)[C@H]1c1ccccc1 [II-350] |
| 1000 to 10000 | 1000 to 10000 | – | – | < 100 | ++ (≥150 and <350) | – | – | – | – | COc1nc2ccccc2cc1CN[C@H]1[C@H](C(C)(C)C)[C@@H](C(=O)O)N(C(=O)[C@@H]2CCCO2)[C@H]1c1cccnc1N(C)C [II-599] |
| 1000 to 10000 | < 1000 | – | – | 100 to 200 | +++ (≥350) | – | – | – | – | COc1ccc(C(C)(C)C)cc1CN[C@H]1[C@H](C(C)(C)C)[C@@H](C(=O)O)N(C(=O)c2cnn(C(C)(C)C)c2C(F)(F)F)[C@H]1c1ccccc1 [II-360] |
| 1000 to 10000 | < 1000 | – | – | > 200 | +++ (≥350) | – | – | – | – | COc1ccc(C2(C)CCC2)cc1CN[C@H]1[C@H](C(C)(C)C)[C@@H](C(=O)O)N(C(=O)[C@@H]2CCCO2)[C@H]1c1ccccc1C(C)C [II-593] |
| 1000 to 10000 | < 1000 | +++ (≥350) | – | 100 to 200 | – | – | – | – | – | COc1ncc(C(F)(F)F)cc1CN[C@@H]1[C@@H](C(C)(C)OC)[C@H](C(=O)O)N(C(=O)C2CCCCC2)[C@@H]1c1ccccc1 (racemic) [III-116] |
| 1000 to 10000 | 1000 to 10000 | ++ (≥150 and <350) | – | < 100 | – | – | – | – | – | COc1ccc(-c2cnn(C)c2)cc1CN[C@H]1[C@H](C(C)(C)C)[C@@H](C(=O)O)N(C(=O)C2CCCCC2)[C@H]1c1ccccc1 [III-186] |
| 1000 to 10000 | 1000 to 10000 | – | – | < 100 | +++ (≥350) | – | – | – | – | COc1ccc(C(C)(C)C)cc1CN[C@H]1[C@H](C(C)(C)C)[C@@H](C(=O)O)N(C(=O)c2cnn(C)c2-c2ccccc2)[C@H]1c1ccccc1 [II-358] |

Second part, the molecule before the results:

| SMILES | EC50 [1] [nM] | EC50 [2] [nM] | Maximum % activity (with co-corrector) (with co-corrector (2 μM)) | Emax (without co-corrector) [%] | Emax [3] [%] | Maximum % activity (with co-corrector) [4] | EC50 [5] [nM] | EC50 [6] [nM] | Maximum % activity (with co-corrector) [7] | Emax (CSE-HRP, without co-corrector) [%] |
| --- | --- | --- | --- | --- | --- | --- | --- | --- | --- | --- |
| COc1ccc(C(F)(F)F)cc1CN[C@H]1[C@H](C(C)(C)C)[C@@H](C(=O)O)N(C(=O)C2CCC(C)(C)O2)[C@H]1c1ccccc1 (some centres unmarked) [Example I-164] | 1000 to 10000 | 1000 to 10000 | +++ (≥350) | > 200 | – | – | – | – | – | – |
| CCC(CC)C(=O)N1[C@H](C(=O)O)[C@@H](C(C)(C)C)[C@H](NCc2cc(C(C)(C)C)ccc2OC)[C@@H]1c1ccccc1 [II-329] | 1000 to 10000 | 1000 to 10000 | – | – | > 200 | +++ (≥350) | – | – | – | – |
| COc1ccc(C(F)(F)F)cc1CN[C@@H]1[C@@H](C(C)(C)C)[C@H](C(=O)O)N(C(=O)C2CCOC(C)(C)C2)[C@@H]1c1ccccc1N(C)C (mixture of isomers) [II-24] | – | – | – | – | – | – | 1000 to 10000 | 1000 to 10000 | +++ (≥350) | > 200 |
| COc1cc(F)c(F)cc1CN[C@H]1[C@H](C(C)(C)C)[C@@H](C(=O)O)N(C(=O)C2CCCCC2)[C@H]1c1ccccc1 [II-128] | – | – | – | – | – | – | 1000 to 10000 | 1000 to 10000 | +++ (≥350) | 100 to 200 |
| COc1ccc(C(C)(C)C)cc1CN[C@H]1[C@H](C(C)(C)C)[C@@H](C(=O)O)N(C(=O)c2cc(-c3ccccc3)nn2C)[C@H]1c1ccccc1 [II-226] | – | – | – | – | – | – | < 1000 | < 1000 | +++ (≥350) | 100 to 200 |
| CCC(CC)Cc1cnc(OC)c(CN[C@H]2[C@H](C(C)(C)C)[C@@H](C(=O)O)N(C(=O)C3CCCCC3)[C@H]2c2ccccc2)c1 [Example I-74] | < 1000 | < 1000 | +++ (≥350) | > 200 | – | – | – | – | – | – |
